Assay results as given in patent US20180209979A1, “METHOD FOR INDIVIDUALIZED CANCER THERAPY” (INSERM (INSTITUT NATIONAL DE LA SANTE ET DE LA RECHERCHE), priority 2015, published 2018).
pIC50: −log10 of the molar value.

Legend:
[1] = test system: CAL33 cells; test: Clonogenicity assay (clonal growth) of shC, sh1 and sh2 CAL33 cells; assay type: cell-based, human; conditions: for inhibition at 0.1 µM: Homo sapiens, CAL-33, erlotinib 0.1 μmol/L, FIG. 7
Experimental: The mean and standard deviation were calculated for three independent experiments. Statistical analysis was carried out using a t test. […] Dishes were then stained with Giemsa (Fluka) and plates were scanned in order to analyze the results by computer with ImageJ software (NIH, USA).

[2] = test system: CAL33 cells; conditions: read-out: IC50 of erlotinib, Quesnelle K M et al. 2012; cited from earlier work
[3] = test system: head and neck tumors; conditions: Agulnik M et al. 2007; cited from earlier work
[4] = test system: CAL33 cells; test: Cumulative population doublings of CAL33 cells; assay type: cell-based, human; conditions: FIG. 2B
Experimental: (§1) For cumulative population doublings assays (Nekanti U et al. Int J Biol Sci 2010; 6(5):499-512.) 10^5 cells were grown in 7.5% FCS-DMEM medium for 28 days at 37° C. and 5% CO2 in Petri boxes 100 mm diameter. Cells were counted each day (Coulter, Beckman) and media were changed every five days. Cells at each passage was calculated as a ratio of total number of cells harvested to total number of cells seeded multiplied by the total number of cells from the previous passage. Population doublings were calculated using the formula: […]
(§2) in which NI is the inoculum cell number and NH the cell harvest number.
(§3) To yield the cumulated doubling level, the population doubling for each passage was calculated and then added to the population doubling levels of the previous passages. The population doubling time was obtained by the formula: […]
(§4) In which NI is the inoculum cell number; NH is the cell harvest number and t is the time of the culture (in hours).

[5] = test system: CAL 33 cells; test: qPCR analysis of pro-angiogenic/pro-inflammatory genes induced by TRF2 silencing; assay type: cell-based, human; conditions: shC cells = 100
Excerpt: (§5) To further analyze the effect of TRF2 knock-down on cell proliferation, invasion capabilities and treatment response, CAL 33 cells expressing shRNA against TRF2 and dominant negative forms of TRF2 were generated (Biroccio A et al. Nat Cell Biol 2013; 15(7):818-28). CAL 33 cells were infected using lentiviral vector (pLKOpuro-3×LacO, Sigma). The plasmids contained scramble (shC; SEQ ID No1) or TRF2-specific shRNA, sh1 (SEQ ID No2) or sh2 (SEQ ID No3).

[6] = test system: CAL27 cells; test: Cumulative population doublings of CAL27 cells; assay type: cell-based, human; conditions: FIG. 3B
Experimental: as §1, §2, §3, §4

[7] = test system: CAL33LUC cells; test: Tumor xenograft formation, size evaluation and tumor section analysis; assay type: in vivo; conditions: 10^6 CAL33LUC cells subcutaneously in nude mice, versus shC, FIG. 5
Experimental: 10^6 cells were injected subcutaneously into the flanks of 5-week-old nude (nu/nu) female mice (Janvier). Bioluminescence was quantified using the In Vivo Imaging System (Perkin Elmer) according to the manufacturer's instructions. Tumor volume [(v ¼ L l^2 0.52] was determined in parallel using a caliper. There was a linear relationship between values for bioluminescence and the tumor volume.
Immuno-histochemical staining for TRF2 was carried out in 3 μm tissue sections from formalin-fixed, paraffin-embedded tissue blocks. Histopathological analysis was conducted in 3 μm tissue sections colored with Masson's trichrome (blue collagen) and scanned with Leica Slide Path. For each tumor, pictures were taken and the following parameters were analyzed using Leica Slide Path Gateway software: total area of the section, area of necrosis, presence of white blood cells inflammatory infiltrate, presence of red blood cells extravasation, thickness of collagen around vessels, number of vessels.

[8] = test system: TRF2; test: TRF2 knock-down tested by immunoblotting in CAL33 cells; assay type: cell-based, human; conditions: FIG. 2A
Excerpt: as §5
The following antibodies were used for Western blotting: anti-phospho ERK 1,2 (Sigma St Louis, Mo.), anti-phospho Akt, anti-Akt, anti-EGFR (Cell Signaling, Cambridge, UK,), anti-ERKs (Santa Cruz Biotechnology, Santa Cruz, Calif.)), anti-TRF2 (Novus bio, Cambridge, UK) and alpha-tubulin (Fischer scientific, Illkirch France).

| Compound | proliferation (cumulative population doublings) [4] | percentage expression of 36B4 [5] [%] | percentage expression of CXCL1 [5] | percentage expression of CXCL7 [5] | percentage expression of CXCL8 [5] | percentage expression of CXCL9 [5] | percentage expression of GAPDH [5] [%] | percentage expression of IL6 [5] | percentage expression of PDGF-BB [5] | percentage expression of RANTES [5] | percentage expression of TRF2 [5] [%] | percentage expression of m-RPLP0 [5] [%] | proliferation (cumulative population doublings) [6] | tumor growth / tumor size (bioluminescence) [7] | also measured |
| --- | --- | --- | --- | --- | --- | --- | --- | --- | --- | --- | --- | --- | --- | --- | --- |
| O=c1[nH]cc(F)c(=O)[nH]1 [5 FU] | – | – | – | – | – | – | – | – | – | – | – | – | – | – | influence of TRF2 knock-down on the efficacy of the drug (clonal growth) ([1]; shC, sh1 and sh2 CAL33 cells, FIG. 6B): no influence |
| C#Cc1cccc(Nc2ncnc3cc(OCCOC)c(OCCOC)cc23)c1 [erlotinib] | – | – | – | – | – | – | – | – | – | – | – | – | – | – | pIC50 [2]: 5.27; patients with an objective response to the treatment [3]: 50%; inhibition at 0.1 µM ([1]; sh1 CAL33 cells (TRF2 knock-down)): 40%; inhibition at 0.1 µM ([1]; sh2 CAL33 cells (TRF2 knock-down)): 50% |
| sh1: TRF2-specific shRNA encoded by DNA of SEQ ID No2, expressed from lentiviral vector (DNA GCCAGAATATCATTAGCGTTTCTCGAGAAACGCTAATGATATTCTGGC) | does not impair CAL33 proliferation | 100 | 380(***) % | 110% | 350(***) % | 210(**) % | 100 | 400(***) % | 150(*) % | 270(***) % | 70 | 100 | does not impair CAL27 proliferation | decreases tumor growth | – |
| sh2: TRF2-specific shRNA encoded by DNA of SEQ ID No3, expressed from lentiviral vector (DNA GCGCATGACAATAAGCAGATTCTCGAGAATCTGCTTATTGTCATGCGC) | does not impair CAL33 proliferation | 100 | 370(***) % | 120(*) % | 1100(***) % | 600(***) % | 100 | 1000(***) % | 190(***) % | 190(***) % | 40 | 100 | does not impair CAL27 proliferation | decreases tumor growth | efficacy in knocking-down TRF2 [8]: most efficient; tumor growth / tumor size (bioluminescence) ([7]; listed as shTRF2 #2): smallest tumors |
